Literature values as cited in patent publication EP2361081B1, “MULTI PORTION INTRA-ORAL DOSAGE FORM AND USE THEREOF” (McNeil AB, priority 2008, dated 2010).
Read-outs that look alike come from different tables or passages of the source. Peptide text beside a SMILES is read from it.

How the values were obtained:
[1] = pKa value lying in interval 8 - 9,6; taken from Handbook of Chemistry and Physics, 85th edition
[2] = stated in the context of absorption from the oral cavity
[3] = in water; footnote b) = low or uncertain value, taken from Handbook of Chemistry and Physics, 85th edition

| Structure (SMILES) | pKa value (in interval 8 - 9,6) [1] | Solubility in water, g/kg [3] | also measured |
| --- | --- | --- | --- |
| NC(=O)C[C@H](N)C(=O)O [Aspargine] | 8,73 |  |  |
| N[C@@H](CS(=O)(=O)O)C(=O)O [Cysteic acid] | 8,70 | Very soluble |  |
| N[C@@H](CCC(=O)O)C(=O)O [Glutamic acid] | 9,58 |  |  |
| NC(=O)CC[C@H](N)C(=O)O [Glutamine] | 9,00 |  | Solubility in water [3]: 42 g/kg |
| NCC(=O)O [Glycine] | 9,58 |  |  |
| N[C@@H](Cc1c[nH]cn1)C(=O)O [Histidine] | 9,09 | 43,5 g/kg |  |
| CC[C@H](C)[C@H](N)C(=O)O [Isoleucine] | 9,60 | 34,2 g/kg |  |
| CC(C)C[C@H](N)C(=O)O [Leucine] |  | 22,0 g/kg |  |
| NCCCC[C@H](N)C(=O)O [Lysine] | 9,16 |  | Solubility in water, g/kg: Very soluble ^a)b) |
| CSCC[C@H](N)C(=O)O [Methionine] | 9,08 |  | Solubility in water [3]: 56 g/kg |
| NCC(=O)NCC(=O)O [N-Glycylglycine] (H-Gly-Gly-OH) | 8,10 |  |  |
| N[C@@H](Cc1ccccc1)C(=O)O [Phenylalanine] | 9,09 | 27,9 g/kg |  |
| N[C@@H](CO)C(=O)O [Serine] | 9,05 |  |  |
| C[C@@H](O)[C@H](N)C(=O)O [Threonine] | 8,96 |  |  |
| CC(C)[C@H](N)C(=O)O [Valine] | 9,52 | 88,5 g/kg |  |
| CN1CCCC1c1cccnc1 (stereo not drawn) [nicotine, 3-(1-methyl-2-pyrrolidinyl)-pyridine] |  |  | pKa of nicotine [2]: about 7.8 |
